Ten compounds from patent US12428406B2 (PMV Pharmaceuticals, Inc., priority 2019, dated 2025) can be followed below.

In this test the target is T1, p53 Y220C (Homo sapiens, UniProt P04637, Y220C).
T1 construct: The recombinant protein was a truncation mutant containing only amino acids 94-312 of p53; made in house; host or cells: E. coli
T1 sequence (P04637 94-312, change not shown): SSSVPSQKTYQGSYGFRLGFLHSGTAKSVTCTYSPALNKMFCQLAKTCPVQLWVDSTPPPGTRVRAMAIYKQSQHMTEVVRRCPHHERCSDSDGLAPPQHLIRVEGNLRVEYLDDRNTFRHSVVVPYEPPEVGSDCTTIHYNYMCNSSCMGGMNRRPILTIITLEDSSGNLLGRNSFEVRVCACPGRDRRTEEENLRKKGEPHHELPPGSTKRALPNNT
Put plainly: In vitro DNA binding activity assay (HTRF / TR-FRET): stabilization of p53 Y220C and increase of its DNA binding activity. It counts as biochemical. Particulars: recombinant His-tagged p53 Y220C DNA binding domain (aa 94-312), biotin-labeled consensus DNA, incubated at 27° C. or 29° C. for 60 min. In outline:
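Homogeneous time-resolved fluorescence with E. coli-derived p53 Y220C and biotinylated consensus DNA. Room-temperature incubations of 15 and 20 min precede reading. SC150 denotes the compound concentration required for 50% increased DNA binding.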
Turning to `COc1cc(S(N)(=O)=O)ccc1NCC#Cc1cc2c(N[C@@H]3CCNC[C@@H]3F)cccc2n1CC(F)(F)F` [Compound 845A], the “SC150 (concentration of the compound required to increase the DNA binding activity by 50%)” value was “+ (+ = 0 μM ≤ SC150 < 0.05 μM)”.
As for `COCC(O)CN1CCC(Nc2cccc3c2cc(C#CCNc2ccc(S(C)(=O)=O)cc2OCF)n3CC(F)(F)F)CC1` (stereo not shown) [Compound 664A, 1-(4-{[2-(3-{[2-(fluoromethoxy)-4-methanesulfonylphenyl]amino}prop-1-yn-1-yl)-1-(2,2,2-trifluoroethyl)-1H-indol-4-yl]amino}piperidin-1-yl)-3-methoxypropan-2-ol], the entry is “+ (+ = 0 μM ≤ SC150 < 0.05 μM)”.
As for `CCN(CC)CCNC(=O)c1ccc(NCC#Cc2cc3c(N[C@@H]4CCN(C)C[C@@H]4F)cccc3n2CC(F)(F)F)c(OC)c1` [Compound 946A], the entry is “+ (+ = 0 μM ≤ SC150 < 0.05 μM)”; as for `Cc1cc(S(C)(=O)=O)ccc1NCC#Cc1cc2c(N[C@H]3CC[C@H](N(C)C)CC3)cccc2n1CC(F)(F)F` [Compound 140A], “+ (+ = 0 μM ≤ SC150 < 0.05 μM)”.
Regarding `COc1cc(S(=O)(=O)NC(C)=O)ccc1NCC#Cc1cc2c(N[C@H]3CC[C@@H](N4CC5(COC5)C4)CC3)cccc2n1CC(F)(F)F` [Compound 209A, N-(3-methoxy-4-{[3-(4-{[(1S,4S)-4-{2-oxa-6-azaspiro[3.3]heptan-6-yl}cyclohexyl]amino}-1-(2,2,2-trifluoroethyl)-1H-indol-2-yl)prop-2-yn-1-yl]amino}benzene-sulfonyl)acetamide], the “SC150 (concentration of the compound required to increase the DNA binding activity by 50%)” value is “+ (+ = 0 μM ≤ SC150 < 0.05 μM)”.
As for `COCCN(CCOC)[C@H]1CC[C@H](Nc2cccc3c2cc(C#CCNc2ccc(S(N)(=O)=O)cc2OC)n3CC(F)(F)F)CC1` [Compound 61A, 3-methoxy-4-{[3-(4-{[(1R,4R)-4-[bis(2-methoxyethyl)amino]cyclo-hexyl]amino}-1-(2,2,2-trifluoroethyl)-1H-indol-2-yl)prop-2-yn-1-yl]amino}benzene-1-sulfonamide], the entry is “+ (+ = 0 μM ≤ SC150 < 0.05 μM)”.
On to `COc1cc(S(N)(=O)=O)ccc1NCC#Cc1cc2c(N[C@H]3CC[C@H](N4CCC(S(C)(=O)=O)CC4)CC3)cccc2n1CC(F)(F)F` [Compound 446A, 3-methoxy-4-{[3-(4-{[(1R,4R)-4-(4-methanesulfonyl-piperidin-1-yl)cyclo-hexyl]amino}-1-(2,2,2-trifluoroethyl)-1H-indol-2-yl)prop-2-yn-1-yl]amino}benzene-1-sulfonamide], for which the “SC150 (concentration of the compound required to increase the DNA binding activity by 50%)” value is given as “+ (+ = 0 μM ≤ SC150 < 0.05 μM)”.
Take `COc1cc(C(=O)N(C)C)ccc1NCC#Cc1cc2c(N[C@@H]3CCN(C)C[C@@H]3F)cccc2n1CC(F)(F)F` [Compound 942A, 4-{[3-(4-{[(3S,4R)-3-fluoro-1-methylpiperidin-4-yl]amino}-1-(2,2,2-trifluoroethyl)-1H-indol-2-yl)prop-2-yn-1-yl]amino}-3-methoxy-N,N-dimethylbenzamide]: the “SC150 (concentration of the compound required to increase the DNA binding activity by 50%)” value is “+ (+ = 0 μM ≤ SC150 < 0.05 μM)”.
As for `CS(=O)(=O)c1ccc(NCC#Cc2cc3c(N[C@H]4CC[C@H](N5CC6(COC6)C5)CC4)cccc3n2CC(F)(F)F)c(Cl)c1` [Compound 289A, 2-{3-[(2-chloro-4-methanesulfonyl-phenyl)amino]prop-1-yn-1-yl}-N-[(1R,4R)-4-{2-oxa-6-azaspiro[3.3]heptan-6-yl}cyclo-hexyl]-1-(2,2,2-trifluo-roethyl)-1H-indol-4-amine], the “SC150 (concentration of the compound required to increase the DNA binding activity by 50%)” value is “+ (+ = 0 μM ≤ SC150 < 0.05 μM)”.
As for `COc1cc(C(=O)NC2CCN(C)CC2)ccc1NCC#Cc1cc2c(NC3CCN(C)CC3)cccc2n1CC(F)(F)F` [Compound 498A], the entry is “+ (+ = 0 μM ≤ SC150 < 0.05 μM)”.
